Results taken from patent publication US10357537B2, “Cyclotides as immunosuppressive agents” (priority 2011, dated 2019).
Bridge positions count the residues as written; N and C are the ends. Peptide text beside a SMILES is read from it.

Test system: IL-2 mRNA in PHA-L-activated cells
Test: IL-2 gene expression, real-time PCR
Type: cell-based, human
Details: 4 hours, vs control
Description: C. IL-2 gene expression analysis using RT-PCR. […] RT-PCR was carried out using specific primers for indicated gene. The data were normalized to the Ct value of the internal housekeeping gene 18s rRNA and the relative mRNA level in the untreated stimulated group was used as calibrator. Data were expressed as mean+SD of three independent experiments.
Total RNA was extracted from controls or treated cells (2×10^6) frozen at −80° C. RNA-purification was performed according to the manufacturer's instructions for the RNeasy mini and Rnase-Free Dnase Set digestion kits (Qiagen, Hilden, Germany). The quantity and purity of extracted RNA was measured by spectrophotometry (Nanodrop, Peqlab, Erlangen, Germany) and purified RNA was reverse transcribed using the RT^2 First Stand Kit (Qiagen, Hilden, Germany).
RT-PCR reactions were carried out on a BioRad MyiQ (BioRad, Munich, Germany) in a final volume of 25 μL using RT^2 qPCR Primer Assay (for IL-2) and SYBR® Green qPCR Mastermix (both from Qiagen, Hilden, Germany). […] Results were expressed as relative gene expression of IL-2 and were determined by comparative Ct method. […]
To determine whether cyclotides have an impact at the gene expression level of the, il-2 gene expression (as control we used 18s rRNA) in PBMC cells was investigated by quantitative real-time PCR (FIG. 12C).

## CC(C)C[C@@H]1NC(=O)CNC(=O)[C@H](CC(N)=O)NC(=O)[C@H](CCCNC(=N)N)NC(=O)[C@H]([C@@H](C)O)NC(=O)[C@@H]2CSSC[C@@H]3NC(=O)[C@H]([C@@H](C)O)NC(=O)CNC(=O)CNC(=O)[C@H](C(C)C)NC(=O)[C@@H]4CSSC[C@H](NC(=O)[C@H](CCCCN)NC(=O)[C@H](CSSC[C@H](NC(=O)[C@H](C(C)C)NC(=O)[C@@H]5CCCN5C1=O)C(=O)NCC(=O)N[C@@H](CCC(=O)O)C(=O)N[C@@H]([C@@H](C)O)C(=O)N4)NC(=O)CNC(=O)[C@@H]1CCCN1C(=O)[C@H]([C@@H](C)O)NC(=O)[C@H](CC(N)=O)NC3=O)C(=O)N[C@@H](CO)C(=O)N[C@@H](Cc1c[nH]c3ccccc13)C(=O)N1CCC[C@H]1C(=O)N[C@@H](C(C)C)C(=O)N2 [Kalata T20K] (cyclo(CGETCVGGTCNTPGCKCSWPVCTRNGLPV); disulfide 1-15, 5-17, 10-22 (inferred); ring closure inferred)
  level of IL-2 mRNA: clearly decreases the level of IL-2 mRNA
